Target: T1, OfurOR27 (Ostrinia furnacalis, UniProt A0A0E4B5I0)
T1 construct: gene OR27; full-length ORF (402 amino acids); with OfurOrco (OfurOR2)
T1 sequence (A0A0E4B5I0 1-401): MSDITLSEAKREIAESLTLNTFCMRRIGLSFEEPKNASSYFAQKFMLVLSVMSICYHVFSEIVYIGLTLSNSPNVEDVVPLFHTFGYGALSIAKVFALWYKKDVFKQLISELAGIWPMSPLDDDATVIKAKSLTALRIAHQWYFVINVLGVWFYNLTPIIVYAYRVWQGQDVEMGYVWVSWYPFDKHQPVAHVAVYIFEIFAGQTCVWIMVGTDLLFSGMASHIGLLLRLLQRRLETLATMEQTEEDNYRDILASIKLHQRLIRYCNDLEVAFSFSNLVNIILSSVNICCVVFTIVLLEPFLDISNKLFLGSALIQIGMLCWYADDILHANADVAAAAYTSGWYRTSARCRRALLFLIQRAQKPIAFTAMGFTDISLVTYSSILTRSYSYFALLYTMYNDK
T1 sequence (A0A0E4B591 1-474 partner): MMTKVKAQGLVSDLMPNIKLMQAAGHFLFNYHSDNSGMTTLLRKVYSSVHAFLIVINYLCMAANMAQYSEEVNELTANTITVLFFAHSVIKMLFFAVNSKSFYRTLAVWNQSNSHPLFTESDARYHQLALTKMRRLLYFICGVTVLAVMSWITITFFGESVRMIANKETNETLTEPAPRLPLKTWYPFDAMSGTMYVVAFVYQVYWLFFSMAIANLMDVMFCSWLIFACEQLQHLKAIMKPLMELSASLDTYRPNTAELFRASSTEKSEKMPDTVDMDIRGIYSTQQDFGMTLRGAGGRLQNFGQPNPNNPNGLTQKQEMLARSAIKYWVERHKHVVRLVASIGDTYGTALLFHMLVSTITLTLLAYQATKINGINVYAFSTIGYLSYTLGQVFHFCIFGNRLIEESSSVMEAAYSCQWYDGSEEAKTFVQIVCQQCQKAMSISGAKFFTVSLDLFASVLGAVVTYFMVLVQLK
Assay: two-electrode voltage clamp in Xenopus oocytes co-expressing OfurOR27/OfurOrco, dose-response
Format: cell-based

Row | Structure (SMILES) | EC50
1 | CCCCCCCC=O [octanal] | 1180 nM
2 | CCCCCCCCO [1-octanol] | 14100 nM
3 | CCCCCCCCC=O [nonanal] | 367 nM

— paper PMC7083148, “Identification of a General Odorant Receptor for Repellents in the Asian Corn Borer Ostrinia furnacalis” (Frontiers in Physiology, 2020)
